From patent publication US11964973B2 (priority 2019, dated 2024) come the findings set out here.

Assay [1] addresses human DGKζ (Homo sapiens (Human), UniProt Q13574). Nature of the assay: biochemical. In kind it is biochemical.
In assay [2] the target is DGKα (Homo sapiens (Human), UniProt P23743). Nature of the assay: biochemical. It counts as biochemical.
The test system of assay [3] is human venous whole blood, CD8 positive population (pERK). As to the kind of experiment: DGK human whole blood pERK assay. In kind it is cell-based. The following applies: read-out: DGK HWB pERK IC50. The essentials:
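Read-out is the pERK-positive fraction of CD8+ cells measured by flow cytometry. Donor venous blood (heparin) saw compound for one hour at 37° C before a 15-minute anti-CD3 challenge (1 μg/mL final) with cross-linking anti-mouse IgG.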

Assay [4] relates to Human venous whole blood (IFN-γ). Nature of the assay: Human whole blood IFN-γ assay. It counts as cell-based. As to the method: Assay 10: Human Whole Blood IFN-γ Assay
Human venous whole blood (22.5 μL per well), obtained from healthy donors, was pre-treated with compounds for one hour at 37° C. in a humidified 95% air/5% CO2 incubator. The blood was stimulated with 2.5 μL anti-human CD3 and anti-CD28 mAb at a final concentration of 1 μg/mL each for 24 hours at 37° C. IFN-γ in the supernatants was measured using AlphLISA kit (Cat #AL217).

Where [5] appears, read: liposome (LIPGLO) assay, read-out: DGKζ LIPGLO IC50.
Where [6] appears, read: liposome (LIPGLO) assay, read-out: DGKα LIPGLO IC50.
[7] abbreviates: read-out: INFg Whole Blood Normalized Agonist EC50, human whole blood, anti-CD3 plus anti-CD28, 24 hours.
Setting [8] is: Homo sapiens, 24 h, human whole blood, anti-CD3 plus anti-CD28, 24 hours, read-out: INFg Whole Blood Normalized Agonist EC50.
Setting [9] is: Table A, liposome (LIPGLO) assay, read-out: DGKζ.
The mark [10] stands for this setting: Table A, liposome (LIPGLO) assay, read-out: DGKα.
Where [11] appears, read: human whole blood IFN-γ, read-out: INFg Whole Blood.

Like-named read-outs stand apart in the source and are kept apart here.

Chain of human DGKζ (Q13574 whole entry, looked up): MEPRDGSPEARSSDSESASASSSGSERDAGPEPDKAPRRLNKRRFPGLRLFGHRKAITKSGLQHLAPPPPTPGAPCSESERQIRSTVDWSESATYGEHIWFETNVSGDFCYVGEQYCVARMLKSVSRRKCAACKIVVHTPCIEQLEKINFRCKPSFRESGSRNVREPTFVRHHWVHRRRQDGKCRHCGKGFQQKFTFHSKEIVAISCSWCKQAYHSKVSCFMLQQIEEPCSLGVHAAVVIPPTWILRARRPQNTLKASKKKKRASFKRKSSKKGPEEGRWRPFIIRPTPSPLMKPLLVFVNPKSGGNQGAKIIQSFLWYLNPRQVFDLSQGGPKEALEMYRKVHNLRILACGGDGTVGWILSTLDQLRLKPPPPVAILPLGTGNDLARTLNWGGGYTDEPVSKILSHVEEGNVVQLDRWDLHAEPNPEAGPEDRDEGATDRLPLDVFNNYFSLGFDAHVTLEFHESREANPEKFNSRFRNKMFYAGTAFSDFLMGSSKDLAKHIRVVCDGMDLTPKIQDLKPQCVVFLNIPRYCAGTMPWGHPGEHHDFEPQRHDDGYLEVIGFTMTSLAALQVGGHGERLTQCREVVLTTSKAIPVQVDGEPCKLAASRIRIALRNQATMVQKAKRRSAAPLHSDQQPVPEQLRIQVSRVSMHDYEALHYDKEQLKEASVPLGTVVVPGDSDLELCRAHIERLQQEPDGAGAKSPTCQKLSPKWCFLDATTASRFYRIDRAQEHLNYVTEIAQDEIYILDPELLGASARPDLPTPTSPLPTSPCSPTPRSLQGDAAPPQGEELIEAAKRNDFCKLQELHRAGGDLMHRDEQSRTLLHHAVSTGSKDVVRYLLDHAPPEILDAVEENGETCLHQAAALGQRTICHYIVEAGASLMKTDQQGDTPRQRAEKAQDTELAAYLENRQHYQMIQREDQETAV
Chain of DGKα (P23743 whole entry, looked up): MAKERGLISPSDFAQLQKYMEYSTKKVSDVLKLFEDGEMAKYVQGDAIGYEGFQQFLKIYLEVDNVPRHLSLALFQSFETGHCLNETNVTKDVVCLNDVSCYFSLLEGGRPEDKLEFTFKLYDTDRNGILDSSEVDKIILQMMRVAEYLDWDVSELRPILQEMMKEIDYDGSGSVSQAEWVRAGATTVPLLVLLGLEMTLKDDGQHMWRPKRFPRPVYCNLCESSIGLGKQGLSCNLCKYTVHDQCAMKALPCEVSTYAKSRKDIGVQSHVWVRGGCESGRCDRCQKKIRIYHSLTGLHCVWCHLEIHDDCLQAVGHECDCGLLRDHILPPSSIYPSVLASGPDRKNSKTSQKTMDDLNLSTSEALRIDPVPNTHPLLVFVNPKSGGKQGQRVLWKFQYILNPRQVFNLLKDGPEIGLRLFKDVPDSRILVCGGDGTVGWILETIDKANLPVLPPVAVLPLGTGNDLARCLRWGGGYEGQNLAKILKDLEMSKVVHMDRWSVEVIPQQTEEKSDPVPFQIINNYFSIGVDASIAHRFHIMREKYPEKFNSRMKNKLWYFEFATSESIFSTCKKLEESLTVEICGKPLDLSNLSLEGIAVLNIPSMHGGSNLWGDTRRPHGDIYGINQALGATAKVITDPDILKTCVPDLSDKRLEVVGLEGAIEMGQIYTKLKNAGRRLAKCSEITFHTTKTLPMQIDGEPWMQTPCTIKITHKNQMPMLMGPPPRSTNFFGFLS

On to `CC[C@@H]1CN(c2cc(=O)n(C)c3ccc(C#N)nc23)CC[C@H]1Oc1cccc(C(C)C)c1` (single isomer, unassigned) [Example 139], for which the IC50 is 1700 nM in assay [1] (setting [5]); 100 nM in assay [2] (setting [6]); 5300 nM in assay [3] (Homo sapiens, CD8 positive). Moreover, in assay [4] (setting [7]), the EC50 amounted to 1500 nM.
For `Cc1cc(OC2CCN(c3cc(=O)n(C)c4ccc(C#N)nc34)CC2)nc(C(C)C)n1` [Example 78, 8-(4-((2-isopropyl-6-methylpyrimidin-4-yl)oxy)piperidin-1-yl)-5-methyl-6-oxo-5,6-dihydro-1,5-naphthyridine-2-carbonitrile], the IC50 in assay [1] (setting [5]) was found to be 16000 nM; in assay [2] (setting [6]), 810 nM; in assay [3] (human whole blood, CD8 positive population), 20000 nM.
As to `C[C@@H]1CN(c2cc(=O)n(C)c3ccc(C#N)nc23)CC[C@H]1Oc1ccc(C2CCCC2)cc1` [Example 100, 8-((3R,4R)-4-(4-cyclopentylphenoxy)-3-methylpiperidin-1-yl)-5-methyl-6-oxo-5,6-dihydro-1,5-naphthyridine-2-carbonitrile], the IC50 worked out at 28000 nM in assay [1] (setting [5]) and 110 nM in assay [2] (setting [6]). In addition, the EC50 in assay [4] (setting [8]) turned out to be 2700 nM.
Regarding `Cc1cccc(O[C@@H]2CCN(c3cc(=O)n(C)c4ccc(C#N)nc34)C[C@H]2C)c1` [Example 107, 5-methyl-8-((3R,4R)-3-methyl-4-(m-tolyloxy)piperidin-1-yl)-6-oxo-5,6-dihydro-1,5-naphthyridine-2-carbonitrile], the IC50 was determined as 24000 nM in assay [1] (DGKζ LIPGLO IC50) and 130 nM in assay [2] (DGKα LIPGLO IC50). Further, the EC50 in assay [4] (setting [8]) turned out to be 13000 nM.
Consider `C[C@@H]1CN(c2cc(=O)n(C)c3ccc(C#N)nc23)CC[C@H]1Oc1ccc(C(F)(F)F)cc1F` [Example 112, 8-((3R,4R)-4-(2-fluoro-4-(trifluoromethyl)phenoxy)-3-methylpiperidin-1-yl)-5-methyl-6-oxo-5,6-dihydro-1,5-naphthyridine-2-carbonitrile], for which the IC50 worked out at 7500 nM in assay [1] (setting [5]) and 340 nM in assay [2] (setting [6]). Moreover, the EC50 in assay [4] (setting [8]) was determined as 4100 nM.
Taken in the same sequence, the figures for `C[C@@H]1CN(c2cc(=O)n(C)c3ccc(C#N)nc23)CC[C@H]1Oc1ccc(F)cc1C(F)(F)F` [Example 116, 8-((3R,4R)-4-(4-fluoro-2-(trifluoromethyl)phenoxy)-3-methylpiperidin-1-yl)-5-methyl-6-oxo-5,6-dihydro-1,5-naphthyridine-2-carbonitrile] were 13000 nM, 450 nM and 4700 nM.
As to `Cc1ccc(O[C@@H]2CCN(c3cc(=O)n(C)c4ccc(C#N)nc34)C[C@H]2C)cc1` [Example 119, 5-methyl-8-((3R,4R)-3-methyl-4-(p-tolyloxy)piperidin-1-yl)-6-oxo-5,6-dihydro-1,5-naphthyridine-2-carbonitrile], the IC50 in assay [1] (setting [5]) was 20000 nM; in assay [2] (setting [6]), 240 nM. In addition, the EC50 in assay [4] (setting [8]) amounted to 6600 nM.
Taken in the same sequence, the figures for `CC(C)c1cccc(O[C@@H]2CCN(c3cc(=O)n(C)c4ccc(C#N)nc34)C[C@H]2C)c1` [Example 122, 8-((3R,4R)-4-(3-isopropylphenoxy)-3-methylpiperidin-1-yl)-5-methyl-6-oxo-5,6-dihydro-1,5-naphthyridine-2-carbonitrile] were 28000 nM, 17 nM and 5800 nM.
For the compound `Cc1cccc(O[C@@H]2CCN(c3c(C#N)c(=O)n(C)c4ccc(C#N)nc34)C[C@H]2C)c1` [Example 136, 5-methyl-8-((3R,4R)-3-methyl-4-(m-tolyloxy)piperidin-1-yl)-6-oxo-5,6-dihydro-1,5-naphthyridine-2,7-dicarbonitrile], the IC50 in assay [1] (setting [5]) was no less than 250000 nM; in assay [2] (DGKα LIPGLO IC50), 810 nM. Also, the EC50 in assay [4] (setting [8]) was determined as 20000 nM.
In the case of `CC[C@@H]1CN(c2cc(=O)n(C)c3ccc(C#N)nc23)CC[C@H]1Oc1ccc(OC(C)(C)C)cc1` [Example 158, 8-((3R,4R)-4-(4-(tert-butoxy)phenoxy)-3-ethylpiperidin-1-yl)-5-methyl-6-oxo-5,6-dihydro-1,5-naphthyridine-2-carbonitrile], the IC50 stood at 1900 nM in assay [1] (read-out: DGKζ LIPGLO IC50) and 360 nM in assay [2] (read-out: DGKα LIPGLO IC50). For the same compound, in assay [4] (setting [8]), the EC50 was determined as 2000 nM.
Turning to `CC[C@@H]1CN(c2cc(=O)n(C)c3ccc(C#N)nc23)CC[C@@H]1Oc1cccc(C(C)(C)C)c1` [Example 165, 8-((3R,4S)-4-(3-(tert-butyl)phenoxy)-3-ethylpiperidin-1-yl)-5-methyl-6-oxo-5,6-dihydro-1,5-naphthyridine-2-carbonitrile], the IC50 was 1200 nM in assay [1] (setting [5]) and 96 nM in assay [2] (setting [6]). Besides, the EC50 in assay [4] (setting [7]) stood at 840 nM.
As for `CC[C@@H]1CN(c2cc(=O)n(C)c3ccc(C#N)nc23)CC[C@@H]1Oc1cccc(C(C)(C)C)c1` [Example 166, 8-((3R,4S)-4-(3-(tert-butyl)phenoxy)-3-ethylpiperidin-1-yl)-5-methyl-6-oxo-5,6-dihydro-1,5-naphthyridine-2-carbonitrile], the IC50 in assay [1] (setting [5]) came out at 1600 nM; in assay [2] (setting [6]) it was 46 nM. Also, the EC50 in assay [4] (setting [7]) came out at 790 nM.
`CCC(C)(C)c1ccc(O[C@H]2CCN(c3cc(=O)n(C)c4ccc(C#N)nc34)C[C@H]2C)cc1` [Example 169, 5-methyl-8-((3R,4S)-3-methyl-4-(4-(tert-pentyl)phenoxy)piperidin-1-yl)-6-oxo-5,6-dihydro-1,5-naphthyridine-2-carbonitrile]: the IC50 in assay [1] (read-out: DGKζ LIPGLO IC50) was found to be 1400 nM; in assay [2] (read-out: DGKα LIPGLO IC50) it was 600 nM. For the same compound, in assay [4] (setting [8]), the EC50 was determined as 1700 nM.
`CC(C)c1ccc(O[C@H]2CCN(c3cc(=O)n(C)c4ccc(C#N)nc34)C[C@H]2C)cc1` [Example 176, 8-((3R,4S)-4-(4-isopropylphenoxy)-3-methylpiperidin-1-yl)-5-methyl-6-oxo-5,6-dihydro-1,5-naphthyridine-2-carbonitrile]: the IC50 was 1300 nM in assay [1] (setting [5]) and 41 nM in assay [2] (setting [6]). Besides, the EC50 in assay [4] (setting [8]) was determined as 2300 nM.
Taken in the same sequence, the figures for `C[C@@H]1CN(c2cc(=O)n(C)c3ccc(C#N)nc23)CC[C@@H]1Oc1cccc(C2CC2)c1` [Example 179, 8-((3R,4S)-4-(3-cyclopropylphenoxy)-3-methylpiperidin-1-yl)-5-methyl-6-oxo-5,6-dihydro-1,5-naphthyridine-2-carbonitrile] were 1200 nM, 69 nM and 2400 nM.
For the compound `CC(C)c1ccc(O[C@H]2CCN(c3cc(=O)n(C)c4ccc(C#N)nc34)C[C@H]2C)cc1` [Example 182, 8-((3R,4S)-4-(4-isopropylphenoxy)-3-methylpiperidin-1-yl)-5-methyl-6-oxo-5,6-dihydro-1,5-naphthyridine-2-carbonitrile], the IC50 in assay [1] (setting [5]) is 1800 nM; in assay [2] (setting [6]), 1100 nM. Further, the EC50 in assay [4] (human whole blood, anti-CD3 plus anti-CD28, 24 hours, read-out: INFg Whole Blood Normalized Agonist EC50) turned out to be 2800 nM.
Regarding `C[C@@H]1CN(c2c(C#N)c(=O)n(C)c3ccc(C#N)nc23)CC[C@@H]1Oc1ccc(C(F)(F)F)cc1` [Example 190, 5-methyl-8-((3R,4S)-3-methyl-4-(4-(trifluoromethyl)phenoxy)piperidin-1-yl)-6-oxo-5,6-dihydro-1,5-naphthyridine-2,7-dicarbonitrile], the values for the IC50 in assay [1] (setting [9]) and in assay [2] (setting [10]) were 3100 nM and 2200 nM, respectively. Further, the EC50 in assay [4] (setting [11]) worked out at 20000 nM.
For `C[C@@H]1CN(c2c(C#N)c(=O)n(C)c3ccc(C#N)nc23)CC[C@@H]1Oc1ccc(C(F)(F)F)cc1` [Example 191, 5-methyl-8-((3R,4S)-3-methyl-4-(4-(trifluoromethyl)phenoxy)piperidin-1-yl)-6-oxo-5,6-dihydro-1,5-naphthyridine-2,7-dicarbonitrile], the IC50 came out at 8600 nM in assay [1] (setting [9]) and 1800 nM in assay [2] (setting [10]). The EC50 in assay [4] (setting [11]) is 20000 nM.
